Data as given in the supplement of paper PMC7840683.
Counter-ions that a name gives are not always drawn.

Test system: HepaRG
Assay: LDH release cytotoxicity, % of total lysis control; higher = more cytotoxic
Conditions: 48 h
In short: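 Single-lot HepaRG cells in collagen I-coated 96-well plates were treated for 48 h in serum-free induction medium containing 0.5% DMSO with test chemicals in eight-point half-log series up to 100 µM. For total lysis, wells received 0.1% Triton X. LDH in 50 µL spent medium was assayed by resorufin fluorescence with CytoTox-ONE. Percent cytotoxicity was normalized to the on-plate vehicle and total lysis controls, with duplicates averaged.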

COCC(C)O (centres undefined) [1-Methoxy-2-propanol]
Conditions	LDH release cytotoxicity [%]
0.03162 µM	-0.68
0.1 µM	-1.18
0.3162278 µM	-1.53
1 µM	-1.81
3.16228 µM	-1.09
10 µM	-0.197
31.6228 µM	-0.477
100 µM	0.469

CCC(=NOCC=CCl)C1C(=O)CC(C2CCOCC2)CC1=O (centres undefined) [Tepraloxydim]
Conditions	LDH release cytotoxicity [%]
0.03162 µM	-1.86
0.1 µM	-1.65
0.3162278 µM	-1.97
1 µM	-1.72
3.16228 µM	-1.7
10 µM	-1.32
31.6228 µM	-0.75
100 µM	-0.617

COC(=O)CCCCC(=O)OC [Dimethyl adipate]
Conditions	LDH release cytotoxicity [%]
0.03162 µM	0.892
0.1 µM	-1.11
0.3162278 µM	-1.36
1 µM	-1.52
3.16228 µM	-1.398
10 µM	-1.08
31.6228 µM	-0.702
100 µM	0.485

CS(=O)(=O)c1ccc(C(=O)C2C(=O)CCCC2=O)c([N+](=O)[O-])c1 [Mesotrione]
Conditions	LDH release cytotoxicity [%]
0.0320971 µM	0.286
0.1015 µM	-0.676
0.320971 µM	-1.35
1.015 µM	-0.8
3.2097118 µM	-0.694
10.15 µM	-1.17
32.0971 µM	-1.09
101.5 µM	-1.76

CC(C)(C)c1cc(C=C2SC(=N)NC2=O)cc(C(C)(C)C)c1O [Darbufelone mesylate]
Conditions	LDH release cytotoxicity [%]
0.03162 µM	-2.49
0.1 µM	-3.41
0.3162278 µM	-3.09
1 µM	-3.16
3.16228 µM	-3.23
10 µM	-3.27
31.6228 µM	-2.49
100 µM	-1.56

CCc1cc(C2=C(C(=O)O)N(c3ccccc3C(F)(F)F)S(=O)(=O)c3ccccc32)cc2c1OCO2 [Fandosentan potassium salt]
Conditions	LDH release cytotoxicity [%]
0.03162 µM	-0.538
0.1 µM	-0.00891
0.3162278 µM	-0.491
1 µM	-0.769
3.16228 µM	-0.525
10 µM	-0.587
31.6228 µM	2.28
100 µM	48.4

O=C1CCC(C2CCCCC2)CC1 [4-Cyclohexylcyclohexanone]
Conditions	LDH release cytotoxicity [%]
0.03162 µM	-0.737
0.1 µM	-0.435
0.3162278 µM	-0.827
1 µM	-0.822
3.16228 µM	-0.588
10 µM	0.479
31.6228 µM	0.205
100 µM	0.739

[OH-].c1cc[c]([Sn+]([c]2ccccc2)[c]2ccccc2)cc1 [Triphenyltin hydroxide]
Conditions	LDH release cytotoxicity [%]
0.03162 µM	-0.226
0.1 µM	-1.04
0.3162278 µM	-0.513
1 µM	46.3
3.16228 µM	68.1
10 µM	57.1
31.6228 µM	63.5
100 µM	64.4

CC[C@H](C)[C@@H](C(=O)O)n1sc2ccccc2c1=O
Conditions	LDH release cytotoxicity [%]
0.03162 µM	-0.834
0.1 µM	-1.623
0.3162278 µM	-0.553
1 µM	-1.34
3.16228 µM	-1.12
10 µM	-0.759
31.6228 µM	-1.34
100 µM	0.0312

CNC(=O)Oc1ccccc1OC(C)C [Propoxur]
Conditions	LDH release cytotoxicity [%]
0.03162 µM	-0.314
0.1 µM	-0.642
0.3162278 µM	0.0787
1 µM	-0.886
3.16228 µM	0.431
10 µM	-0.355
31.6228 µM	-0.0411
100 µM	2.29

COc1ccc(OC(F)(F)F)cc1CNC1CCCNC1c1ccccc1 (centres undefined)
Conditions	LDH release cytotoxicity [%]
0.03162 µM	-0.49
0.1 µM	-0.83
0.3162278 µM	-1.38
1 µM	-1.02
3.16228 µM	-1.52
10 µM	-0.56
31.6228 µM	5.16
100 µM	88

COC(=O)CCC(=O)OC [Dimethyl succinate]
Conditions	LDH release cytotoxicity [%]
0.03162 µM	-1.91
0.1 µM	-0.897
0.3162278 µM	-1.76
1 µM	-2.16
3.16228 µM	-1.84
10 µM	-1.56
31.6228 µM	-1.39
100 µM	0.319

CC1(C)C(C=C(Cl)Cl)C1C(=O)OC(C#N)c1ccc(F)c(Oc2ccccc2)c1 (centres undefined) [Cyfluthrin]
Conditions	LDH release cytotoxicity [%]
0.031623 µM	0.499
0.1 µM	-1.05
0.316228 µM	-1.18
1 µM	-1.61
3.16228 µM	-1.18
10 µM	-0.972
31.6228 µM	-0.561
100 µM	-0.122

CCOCN(C(=O)CCl)c1c(C)cccc1CC [Acetochlor]
Conditions	LDH release cytotoxicity [%]
0.03162 µM	-0.907
0.1 µM	-1.94
0.3162278 µM	-0.877
1 µM	-0.999
3.16228 µM	-1.55
10 µM	-0.606
31.6228 µM	0.268
100 µM	56.1

Oc1ccc(O)cc1 [Hydroquinone]
Conditions	LDH release cytotoxicity [%]
0.03162 µM	0.852
0.1 µM	-0.606
0.3162278 µM	-1.09
1 µM	-0.745
3.16228 µM	-0.483
10 µM	-0.0561
31.6228 µM	-0.947
100 µM	-1.615

CC(C)c1nnc2ccc(-c3ocnc3-c3cc(F)ccc3F)cn12
Conditions	LDH release cytotoxicity [%]
0.03162 µM	-1.28
0.1 µM	-1.01
0.3162278 µM	-1.08
1 µM	-1.31
3.16228 µM	-2.01
10 µM	-1.36
31.6228 µM	-2.04
100 µM	5.98

CCCCCCCCN(C)C [N,N-Dimethyloctylamine]
Conditions	LDH release cytotoxicity [%]
0.031939 µM	-1.23
0.101 µM	-0.78
0.31939 µM	-2.01
1.01 µM	-1.97
3.1939004 µM	-1.09
10.1 µM	-1.35
31.939 µM	-0.557
101 µM	2.22

CCCCOCCO [2-Butoxyethanol]
Conditions	LDH release cytotoxicity [%]
0.03162 µM	-2.12
0.1 µM	-0.886
0.3162278 µM	-1.1
1 µM	-2.21
3.16228 µM	-1.06
10 µM	-0.332
31.6228 µM	-0.824
100 µM	1.02

C[Si](Cn1cncn1)(c1ccc(F)cc1)c1ccc(F)cc1 [Flusilazole]
Conditions	LDH release cytotoxicity [%]
0.03162 µM	-1.41
0.1 µM	-1.68
0.3162278 µM	-2.26
1 µM	-1.24
3.16228 µM	-2.08
10 µM	-1.2
31.6228 µM	13.7
100 µM	42.5

CC(C=CC1=C(C)CCCC1(C)C)=CC=CC(C)=CC(=O)O [all-trans-Retinoic acid]
Conditions	LDH release cytotoxicity [%]
0.03162 µM	-2.15
0.1 µM	-2.16
0.3162278 µM	-1.95
1 µM	-2.25
3.16228 µM	-2.56
10 µM	-1.87
31.6228 µM	-1.86
100 µM	2.13

Cc1cccc(N)c1 [3-Methylaniline]
Conditions	LDH release cytotoxicity [%]
0.03162 µM	-1.1
0.1 µM	-0.218
0.3162278 µM	-1
1 µM	-0.834
3.16228 µM	-0.813
10 µM	0.339
31.6228 µM	0.0207
100 µM	1.94

CCCCOC(=O)c1ccccc1C(=O)OCCCC [Dibutyl phthalate]
Conditions	LDH release cytotoxicity [%]
0.03162 µM	6.54
0.1 µM	3.46
0.3162278 µM	3.28
1 µM	4.3
3.16228 µM	4.61
10 µM	4.63
31.6228 µM	6.08
100 µM	9.42

O=C(O)C(Cl)Cl [Dichloroacetic acid]
Conditions	LDH release cytotoxicity [%]
0.03162 µM	-1.93
0.1 µM	-1.93
0.3162278 µM	-1.5
1 µM	-2.38
3.16228 µM	-2.6
10 µM	-1.71
31.6228 µM	-2.34
100 µM	0.0869

CC(C)(C)CC(C)(C)c1ccc(O)cc1 [4-(1,1,3,3-Tetramethylbutyl)phenol]
Conditions	LDH release cytotoxicity [%]
0.03162 µM	-1.49
0.1 µM	-1.58
0.3162278 µM	-1.966
1 µM	-1.68
3.16228 µM	-1.21
10 µM	-1.69
31.6228 µM	-0.473
100 µM	42.9

CCOc1cccc(-n2cc(C(=O)N3CCN(c4cc(C(=O)O)c5ccccc5c4)CC3)nc2-c2ccc(C)cc2)c1
Conditions	LDH release cytotoxicity [%]
0.03162 µM	1.24
0.1 µM	-0.332
0.3162278 µM	0.167
1 µM	-0.486
3.16228 µM	-0.46
10 µM	-0.211
31.6228 µM	9.35
100 µM	44.3

Cc1oc(-c2ccccc2)nc1CCOc1ccc(CC(Nc2ccccc2C(=O)c2ccccc2)C(=O)O)cc1 (centres undefined) [Farglitazar]
Conditions	LDH release cytotoxicity [%]
0.03162 µM	-1.27
0.1 µM	-1.73
0.3162278 µM	-0.126
1 µM	-1.05
3.16228 µM	-2.03
10 µM	-1.81
31.6228 µM	67.1
100 µM	78.6

CCCCCCC(C)OC(=O)COc1nc(F)c(Cl)c(N)c1Cl (centres undefined) [Fluroxypyr-meptyl]
Conditions	LDH release cytotoxicity [%]
0.031623 µM	1.23
0.1 µM	-0.123
0.316228 µM	0.191
1 µM	-0.348
3.16228 µM	-7.7
10 µM	8.36
31.6228 µM	-0.641
100 µM	-0.963

COCCOCCO [Diethylene glycol monomethyl ether]
Conditions	LDH release cytotoxicity [%]
0.03162 µM	-0.428
0.1 µM	-2.12
0.3162278 µM	-0.798
1 µM	-1.35
3.16228 µM	-0.999
10 µM	-1.13
31.6228 µM	0.0217
100 µM	1.02
